# Experimental data published in ChEMBL document CHEMBL1201862, “PubChem BioAssay data set” (2004).
#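 A five-concentration, 48-hour dose response in 96-well plates underlies each endpoint, interpolated linearly between surrounding concentrations. GI50 is the concentration that inhibits growth by half.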 The source made the active and inactive calls. Rule as the data show it: active = GI50 up to about 1.1 µM and inactive = higher.
# Experiments:
# Assay in all cases: DTP human tumour cell line panel, 48 h
# SNB-75 = test system: SNB-75
# SW-620 = test system: SW-620
# SK-MEL-2 = test system: SK-MEL-2
# UO-31 = test system: UO-31
# HT-29 = test system: HT-29
# SF-539 = test system: SF-539
# Hs-578T = test system: Hs-578T
# HCT-116 = test system: HCT-116
# UACC-257 = test system: UACC-257
# SF-268 = test system: SF-268
# SK-OV-3 = test system: SK-OV-3
# SNB-19 = test system: SNB-19
# IGROV-1 = test system: IGROV-1
# M14 = test system: M14
# TK-10 = test system: TK-10
# LOX IMVI = test system: LOX IMVI
# SK-MEL-5 = test system: SK-MEL-5
# MCF7 = test system: MCF7
# CAKI-1 = test system: CAKI-1
# SN12C = test system: SN12C
# U-251 = test system: U-251
# COLO 205 = test system: COLO 205
# 786-0 = test system: 786-0
# OVCAR-8 = test system: OVCAR-8
# MDA-N = test system: MDA-N
# DU-145 = test system: DU-145
# HL-60 = test system: HL-60
# SR = test system: SR
# SF-295 = test system: SF-295
# Malme-3M = test system: Malme-3M
# A549 = test system: A549
# OVCAR-3 = test system: OVCAR-3
# HOP-92 = test system: HOP-92
# NCI-H460 = test system: NCI-H460
# ACHN = test system: ACHN
# HOP-62 = test system: HOP-62
# HCC 2998 = test system: HCC 2998
# NCI-H23 = test system: NCI-H23
# OVCAR-4 = test system: OVCAR-4
# RPMI-8226 = test system: RPMI-8226
# MDA-MB-231 = test system: MDA-MB-231
# A498 = test system: A498
# MOLT-4 = test system: MOLT-4
# OVCAR-5 = test system: OVCAR-5
# SK-MEL-28 = test system: SK-MEL-28
# NCI-H522 = test system: NCI-H522
# NCI-H226 = test system: NCI-H226
# HCT-15 = test system: HCT-15
# PC-3 = test system: PC-3
# RXF 393 = test system: RXF 393
# MDA-MB-435 = test system: MDA-MB-435
# EKVX = test system: EKVX
# BT-549 = test system: BT-549
# KM12 = test system: KM12
# K562 = test system: K562
# T47D = test system: T47D
# UACC-62 = test system: UACC-62
# NCI/ADR-RES = test system: NCI/ADR-RES
# CCRF-CEM = test system: CCRF-CEM
structure (smiles),measurement,setting,value
Clc1ccc(-c2nn3c(COc4ccc(OCc5nnc6sc(-c7ccc(Cl)cc7)nn56)c(Cl)c4)nnc3s2)cc1,GI50,SNB-75,12.7 µM (inactive)
same,GI50,SW-620,24 µM (inactive)
same,GI50,SK-MEL-2,53.3 µM (inactive)
same,GI50,UO-31,17.3 µM (inactive)
same,GI50,HT-29,17.5 µM (inactive)
same,GI50,SF-539,24 µM (inactive)
same,GI50,Hs-578T,30.3 µM (inactive)
same,GI50,HCT-116,24.8 µM (inactive)
same,GI50,UACC-257,44.7 µM (inactive)
same,GI50,SF-268,15.6 µM (inactive)
same,GI50,SK-OV-3,27.3 µM (inactive)
same,GI50,SNB-19,14.6 µM (inactive)
same,GI50,IGROV-1,18.9 µM (inactive)
same,GI50,M14,31.7 µM (inactive)
same,GI50,TK-10,17.5 µM (inactive)
same,GI50,LOX IMVI,17.9 µM (inactive)
same,GI50,SK-MEL-5,20.9 µM (inactive)
same,GI50,MCF7,35.7 µM (inactive)
same,GI50,CAKI-1,21.6 µM (inactive)
same,GI50,SN12C,> 100 µM (inactive)
same,GI50,U-251,21.8 µM (inactive)
same,GI50,COLO 205,57.8 µM (inactive)
same,GI50,786-0,13.7 µM (inactive)
same,GI50,OVCAR-8,22 µM (inactive)
same,GI50,MDA-N,22 µM (inactive)
same,GI50,DU-145,37.5 µM (inactive)
same,GI50,HL-60,17.7 µM (inactive)
same,GI50,SR,19.1 µM (inactive)
same,GI50,SF-295,26.5 µM (inactive)
same,GI50,Malme-3M,37.3 µM (inactive)
same,GI50,A549,24.4 µM (inactive)
same,GI50,OVCAR-3,45.4 µM (inactive)
same,GI50,HOP-92,17.5 µM (inactive)
same,GI50,NCI-H460,52 µM (inactive)
same,GI50,ACHN,44.2 µM (inactive)
same,GI50,HOP-62,23.2 µM (inactive)
same,GI50,HCC 2998,20.2 µM (inactive)
same,GI50,NCI-H23,21.1 µM (inactive)
same,GI50,OVCAR-4,25.5 µM (inactive)
same,GI50,RPMI-8226,24.5 µM (inactive)
same,GI50,MDA-MB-231,32.2 µM (inactive)
same,GI50,A498,32.7 µM (inactive)
same,GI50,MOLT-4,20.5 µM (inactive)
same,GI50,OVCAR-5,24.2 µM (inactive)
same,GI50,SK-MEL-28,31.3 µM (inactive)
same,GI50,NCI-H522,15.6 µM (inactive)
same,GI50,NCI-H226,74.5 µM (inactive)
same,GI50,HCT-15,28 µM
same,GI50,PC-3,31 µM (inactive)
same,GI50,RXF 393,15.8 µM (inactive)
same,GI50,MDA-MB-435,33.7 µM (inactive)
same,GI50,EKVX,27 µM (inactive)
same,GI50,BT-549,18.9 µM (inactive)
same,GI50,KM12,29.4 µM (inactive)
same,GI50,K562,25.1 µM (inactive)
same,GI50,T47D,36.5 µM (inactive)
same,GI50,UACC-62,> 100 µM (inactive)
same,GI50,NCI/ADR-RES,27.7 µM (inactive)
CC(=O)NC1C(OCc2ccccc2)OC(CO)C(O)C1OCC(=O)N[C@@H](C)C(=O)N[C@H](CCC(=O)NCCCCNc1c2ccccc2nc2cccc([N+](=O)[O-])c12)C(N)=O (stereo partly specified),GI50,SNB-75,1.79 µM (inactive)
same,GI50,SW-620,0.618 µM (active)
same,GI50,SK-MEL-2,2.51 µM (inactive)
same,GI50,UO-31,2.43 µM (inactive)
same,GI50,HT-29,1.18 µM (inactive)
same,GI50,SF-539,0.731 µM (active)
same,GI50,Hs-578T,3.1 µM (inactive)
same,GI50,HCT-116,0.637 µM (active)
same,GI50,UACC-257,2.13 µM (inactive)
same,GI50,SF-268,2.58 µM (inactive)
same,GI50,SK-OV-3,7.59 µM (inactive)
same,GI50,SNB-19,4.53 µM (inactive)
same,GI50,IGROV-1,0.804 µM (active)
same,GI50,M14,2.23 µM (inactive)
same,GI50,TK-10,1.47 µM (inactive)
same,GI50,LOX IMVI,2.39 µM (inactive)
same,GI50,SK-MEL-5,0.516 µM (active)
same,GI50,MCF7,0.771 µM (active)
same,GI50,CAKI-1,1.49 µM (inactive)
same,GI50,SN12C,2.25 µM (inactive)
same,GI50,U-251,1.87 µM (inactive)
same,GI50,COLO 205,0.684 µM (active)
same,GI50,786-0,0.998 µM (active)
same,GI50,OVCAR-8,1.55 µM (inactive)
same,GI50,MDA-N,1.64 µM (inactive)
same,GI50,DU-145,1.91 µM (inactive)
same,GI50,SR,1.07 µM (active)
same,GI50,SF-295,3.88 µM (inactive)
same,GI50,Malme-3M,1.34 µM (inactive)
same,GI50,A549,0.959 µM (active)
same,GI50,OVCAR-3,3.5 µM (inactive)
same,GI50,HOP-92,0.748 µM (active)
same,GI50,NCI-H460,0.48 µM (active)
same,GI50,ACHN,1.33 µM (inactive)
same,GI50,HOP-62,3.69 µM (inactive)
same,GI50,HCC 2998,0.682 µM (active)
same,GI50,NCI-H23,0.984 µM (active)
same,GI50,OVCAR-4,0.957 µM (active)
same,GI50,RPMI-8226,1.64 µM (inactive)
same,GI50,MDA-MB-231,2.5 µM (inactive)
same,GI50,A498,2.16 µM (inactive)
same,GI50,MOLT-4,1.6 µM (inactive)
same,GI50,OVCAR-5,3.56 µM (inactive)
same,GI50,SK-MEL-28,4.5 µM (inactive)
same,GI50,NCI-H522,0.134 µM (active)
same,GI50,NCI-H226,1.84 µM (inactive)
same,GI50,HCT-15,1.97 µM
same,GI50,PC-3,1.24 µM (inactive)
same,GI50,RXF 393,1.53 µM (inactive)
same,GI50,MDA-MB-435,1.62 µM (inactive)
same,GI50,EKVX,2.07 µM (inactive)
same,GI50,BT-549,2.74 µM (inactive)
same,GI50,KM12,1.83 µM (inactive)
same,GI50,K562,1.13 µM (inactive)
same,GI50,T47D,1.61 µM (inactive)
same,GI50,UACC-62,1.51 µM (inactive)
same,GI50,CCRF-CEM,4.11 µM (inactive)
same,GI50,NCI/ADR-RES,16.7 µM (inactive)
